Results published in the METLIN SMRT retention time set (Domingo-Almenara et al. 2019).

Experiment: gradient 5% acetonitrile 3 min, to 50% in 2 min, to 85% in 15 min, held 3 min, 100 µL/min
Conditions: column: Zorbax Extend-C18 2.1 x 50 mm; eluents: water / acetonitrile, 0.1% formic acid
Summary of the method: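 Each retention time is based on an adduct peak selected computationally and verified by manual inspection. Measurements used HPLC–quadrupole time-of-flight mass spectrometry in positive and negative ionization mode on mixtures of ~100 pure standards. Chromatography ran on a Zorbax Extend-C18 column (2.1 × 50 mm, 1.8 μm) at 100 μL/min with water and acetonitrile, each containing 0.1% formic acid, and dead and dwell volumes of 40 μL and 900 μL.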

Structure (SMILES) | RP-LC retention time [s]
CC1CCc2nn(CC(=O)Nc3ccc(F)cc3F)cc2C1 (stereo not given) | 875
CCOc1ccc(NC(=O)NCC(c2cccnc2)c2c[nH]c3ccccc23)cc1 (stereo not given) | 670
NC(=O)C1CCN(C(=O)c2ccc(CN3C(=O)CCn4nc(-c5ccc(Cl)cc5)cc43)cc2)CC1 | 713
O=C(NC(=O)c1ccccc1)OCCN1CCN(c2ncc(C(F)(F)F)cc2Cl)CC1 | 692
Cc1cc(C)cc(NC(=O)Nc2nccn(-c3cccc(Cl)c3)c2=O)c1 | 1110
O=C(NC1CC1)c1ccccc1OC1CN(C2CCC2)C1 | 568
CC(=O)N1CCC(NC(=O)Nc2cccc(C)c2)C1 (stereo not given) | 635
O=S(=O)(c1ccc2nc(N3CCN(c4ccc(F)cc4)CC3)ccc2c1)N1CCCC1 | 951
Cc1noc(-c2ccc(NC(=O)COc3ccccc3F)cc2)n1 | 832
CC(=O)Nc1ccc(OC(=O)Oc2ccc(NC(C)=O)cc2)cc1 | 724
Cn1nc(-c2nnc(-c3ccccc3)o2)c2c1CCN(S(=O)(=O)c1cccc(C(F)(F)F)c1)C2 | 981
Cc1cc(C)cc(S(=O)(=O)Nc2ccc3c(c2)CCC(=O)N3CC(C)C)c1 | 928
Fc1cccc(-c2nnc(C(c3cccc(Cl)c3)N3CCN(c4ccccn4)CC3)o2)c1 (stereo not given) | 774
CCOc1ccccc1CNC(=O)c1c(C)sc2ccn(C)c(=O)c12 | 823
O=C(Cc1ccccc1)N1CCN(c2nc3cccnc3o2)CC1 | 686
O=C(NC1CCCC1)c1ccc2c(c1)nc1n2CCCCC1 | 600
COc1ccc(NS(=O)(=O)c2cc(-c3cc(C(F)(F)F)[nH]n3)sc2C)cc1Cl | 995
Cc1ccc(S(=O)(=O)N2CC(=O)N(c3ccc(F)cc3)C(C)(C(=O)NC3CCCC3)C2)cc1 (stereo not given) | 956
COc1cccc(-c2ccc(=O)n(Cc3nc(-c4ccc(Cl)cc4)no3)n2)c1 | 1110
Cc1ccc(C(=O)Nc2ccc3c(N4CCCCC4)ncnc3c2)s1 | 695
CN1C(=O)c2cccn2CC1CNC(=O)c1cc(CN2CCOCC2)on1 (stereo not given) | 548
CCCOc1nc2ccccc2nc1N1CCCC(C(=O)NCc2cccc(C)c2)C1 (stereo not given) | 1220
O=c1n(Cc2cc(F)cc(F)c2)nc2c(S(=O)(=O)N3CCOCC3)cccn12 | 743

Structure (SMILES) | RP-LC retention time [s]
CC1(C)Cc2cccc(OCc3ccc(C(=O)NCCN4CCOCC4)cc3)c2O1 | 586
C[C@H](N)Cc1cccc(C(F)(F)F)c1 | 655
Cc1cccn2cc(-c3cccc(S(=O)(=O)N4CC(C)OC(C)C4)c3)nc12 (stereo not given) | 671
COc1ccc(CCNC(=O)NCCS(=O)(=O)c2c(C)n(C)c3ccccc23)cc1 | 740
CCN1C(=O)c2cccnc2Sc2cc(NC(=O)c3ccc(Cl)cc3)ccc21 | 907
O=C(c1ccc2c(c1)Sc1ncccc1C(=O)N2C1CC1)N1CCCCC1 | 733
CCOc1cccc(-c2noc(Cn3ccn(-c4ccccc4)c(=O)c3=O)n2)c1 | 858
O=C(c1ccoc1)N1CCC2(CCCCO2)CC1 | 639
O=C(Cn1nc(C(=O)N2CCOCC2)c2ccccc21)Nc1ccc(F)cc1 | 733
c1ccc(-c2nnc(-c3nc(NCCc4cccs4)c4ccccc4n3)o2)cc1 | 1040
Cn1c(=O)oc2cc(-c3noc(-c4cccc(Br)c4)n3)ccc21 | 1190
CCc1nc(-c2csc(S(=O)(=O)N3CCC(C(=O)Nc4cccc(Cl)c4C)CC3)c2)no1 | 984
Cc1ccc(C)c(S(=O)(=O)Nc2cnc(N3CCNCC3)c(C(=O)NC3CCCC3)c2)c1 | 621
CC(C)CN1C(=O)c2cccn2CC1C(=O)NCCCN1CCCC1=O (stereo not given) | 617
CCN1CCN(CCNC(=O)CN2CCCc3nc(C4CC4)ncc3C2=O)CC1 | 564
COc1cccc(NC(=O)Cn2ccc3ccc(-c4nnc(C)o4)cc32)c1 | 788
Cc1c(C(=O)N2CCOCC2)sc2nc(-c3cccc(F)c3)c(NC3CCCC3)n12 | 859
Cc1noc(-c2ccc(=O)n(Cc3ccccc3F)n2)n1 | 794
Cc1ccc(-c2noc(CC(=O)NC(C)c3ccc(C)cc3C)n2)cc1 (stereo not given) | 1080
O=S(=O)(C1CC1)N1CCCCC1c1nncn1Cc1ccccc1 (stereo not given) | 722
O=C(CCn1cnc2cc(-c3noc(COc4ccccc4)n3)ccc21)N1CCCC1 | 730
O=S(=O)(Cc1ccccc1)N1CCCCC1c1nc(C2CC2)n[nH]1 (stereo not given) | 758
